Results from patent US20250042889A1, “3CLPRO PROTEASE INHIBITOR” (SHANGHAI QILU PHARMACEUTICAL RESEARCH AND DEVELOPMENT …, priority 2021, published 2025).

molecular target: SARS-COV-2 3CLpro/Mpro protease (Severe acute respiratory syndrome coronavirus 2 (2019-nCoV) (SARS-CoV-2), UniProt P0DTD1); assay: Inhibitory effect on SARS-COV-2 3CLpro/Mpro protease by fluorescence resonance energy transfer; format: biochemical; details: IC50 (nM), Inhibition on SARS-CoV-2 3CLpro/Mpro protease, activity intervals A-D

Row | Structure (SMILES) | IC50 [nM]
1 | CNc1cncc(C(=O)N2CCC[C@@H](Nc3c(C(=O)N4CC5C=CC(C4)N5)cc(Br)cc3[N+](=O)[O-])C2)c1 [Example 335] | 10 to 50

same assay, conditions: activity intervals A-D, read-out: IC50 (nM), Inhibition on SARS-CoV-2 3CLpro/Mpro protease

Row | Structure (SMILES) | IC50 [nM]
2 | CNc1cncc(C(=O)N2C[C@H](Nc3c(C(=O)N4C[C@@H](C)O[C@@H](C)C4)cc(Br)cc3[N+](=O)[O-])C[C@H]2C(=O)N[C@@H]2CCNC2=O)c1 [Example 397] | 50 to 100
3 | CNc1cncc(C(=O)N2C[C@H](Nc3c(C(=O)N4C[C@@H](C)O[C@@H](C)C4)cc(Br)cc3[N+](=O)[O-])C[C@H]2C(=O)N[C@H]2CCN(CCOC)C2)c1 [Example 404] | 100 to 200
4 | CNc1cncc(C(=O)N2C[C@H](Nc3c(C(=O)N4C[C@@H](C)O[C@@H](C)C4)cc(Br)cc3[N+](=O)[O-])C[C@H]2C(=O)Nc2ccnc(F)c2)c1 [Example 415] | 50 to 100
5 | C[C@H]1CN(C(=O)c2cc(Br)cc([N+](=O)[O-])c2N[C@H]2CN(C(=O)c3cncc(Br)c3)CC2(C)C)C[C@H](C)O1 [Example 225] | < 10
6 | CNC(=O)[C@@H]1C[C@@H](Nc2c(C(=O)N3C[C@@H](C)O[C@@H](C)C3)cc(Br)cc2[N+](=O)[O-])CN1C(=O)c1cncc(NC)c1 [Example 366] | 10 to 50
7 | CNc1cncc(C(=O)N2CCC[C@@H](Nc3c(C(=O)N4CCC5(CCO5)CC4)cc(Br)cc3[N+](=O)[O-])C2)c1 [Example 285] | 10 to 50
8 | CNc1cncc(C(=O)N[C@H]2CCOC[C@H]2Nc2c(C(=O)N3CCC[C@@H](C)C3)cc(Br)cc2[N+](=O)[O-])c1 [Example 226] | 10 to 50
9 | Cc1cc(C(=O)N2C[C@H](Nc3c(C(=O)NC4CCCCC4)cc(Br)cc3[N+](=O)[O-])C3(CC3)C2)cc(=O)[nH]1 [Example 299] | 10 to 50
10 | CNc1cncc(C(=O)N2CCC[C@@H](Nc3c(C(=O)N4CCOC5CC54)cc(Br)cc3[N+](=O)[O-])C2)c1 (some centres unmarked) [Example 294] | 10 to 50
11 | O=C(N[C@H]1CCCC[C@H]1Nc1c(C(=O)N2CCCCC2)cc(Br)cc1C(F)(F)F)c1cncc2ccccc12 [Example 9, N-((1S,2R)-2-((4-Bromo-2-(piperidin-1-carbonyl)-6-(trifluoromethyl)phenyl)amino)cyclohexyl) isoquinolin-4-formamide] | < 10
12 | CNc1cncc(C(=O)N2C[C@H](Nc3c(C(=O)N4C[C@@H](C)O[C@@H](C)C4)cc(Br)cc3[N+](=O)[O-])C[C@H]2C(=O)Nc2nn(-c3cccnc3)cc2Br)c1 [Example 424] | 50 to 100
13 | COCCN1CCN(C(=O)c2cc(Br)cc([N+](=O)[O-])c2N[C@@H]2CCCN(C(=O)[C@H]3CC(=O)N[C@@H](C)C3)C2)CC1 [Example 249] | 10 to 50
14 | CNc1cncc(C(=O)N2CC(Nc3c(C(=O)N4C[C@@H](C)O[C@@H](C)C4)cc(Br)cc3[N+](=O)[O-])C(F)(F)C2)c1 (some centres unmarked) [Example 161] | 10 to 50
15 | CNc1cncc(C(=O)N2CC(Nc3c(C(=O)N4CCC5(CCCC5)CC4)cc(Br)cc3[N+](=O)[O-])C(C)(C)C2)c1 (centres unmarked) [Example 176] | 10 to 50
16 | CNc1cncc(C(=O)N2C[C@H](Nc3c(C(=O)N4C[C@@H](C)O[C@@H](C)C4)cc(Br)cc3[N+](=O)[O-])[C@@H](OCc3cncn3C)C2)c1 [Example 462, (5-Bromo-2-(((3S,4S)-4-((1-methyl-1H-imidazol-5-yl)methoxy)-1-(5-(methylamino)nicotinoyl)pyrrolidin-3-yl)amino)-3-nitrophenyl)((2S,6R)-2,6-dimethylmorpholinyl)methanone] | 10 to 50
17 | CNc1cncc(C(=O)N2C[C@H](Nc3c(C(=O)N4C[C@@H](C)O[C@@H](C)C4)cc(Br)cc3[N+](=O)[O-])C[C@H]2C(=O)Nc2ccc3c(cnn3C)c2Cl)c1 [Example 435] | 50 to 100
18 | O=C(N[C@H]1COCC[C@H]1Nc1c(C(=O)N2CCC(F)(F)CC2)cc(Br)cc1[N+](=O)[O-])c1cncc2cc(Cl)ccc12 [Example 206] | 50 to 100
19 | CNc1cncc(C(=O)N2CCC[C@@H](Nc3c(C(=O)N4C[C@H]5C[C@@H]4CO5)cc(Br)cc3[N+](=O)[O-])C2)c1 [Example 290] | 10 to 50
20 | CNc1cncc(C(=O)N2CCC[C@@H](Nc3c(C(=O)N4C[C@H](C)O[C@@H](C(F)(F)F)C4)cc(Br)cc3[N+](=O)[O-])C2)c1 [Example 350] | 50 to 100
